Experiments:
[1] = Physicochemical PBPK model inputs
[2] = Passive transport clearance; type: in vitro ADME, human; settings: Measured using SCHH
BCRP [3] = molecular target: T1, BCRP (Homo sapiens, UniProt Q9UNQ0); assay: BCRP-mediated transport of substrate; type: in vitro ADME; settings: Estimated; optimized to recover ~40% Fa
T1 sequence (Q9UNQ0 1-655): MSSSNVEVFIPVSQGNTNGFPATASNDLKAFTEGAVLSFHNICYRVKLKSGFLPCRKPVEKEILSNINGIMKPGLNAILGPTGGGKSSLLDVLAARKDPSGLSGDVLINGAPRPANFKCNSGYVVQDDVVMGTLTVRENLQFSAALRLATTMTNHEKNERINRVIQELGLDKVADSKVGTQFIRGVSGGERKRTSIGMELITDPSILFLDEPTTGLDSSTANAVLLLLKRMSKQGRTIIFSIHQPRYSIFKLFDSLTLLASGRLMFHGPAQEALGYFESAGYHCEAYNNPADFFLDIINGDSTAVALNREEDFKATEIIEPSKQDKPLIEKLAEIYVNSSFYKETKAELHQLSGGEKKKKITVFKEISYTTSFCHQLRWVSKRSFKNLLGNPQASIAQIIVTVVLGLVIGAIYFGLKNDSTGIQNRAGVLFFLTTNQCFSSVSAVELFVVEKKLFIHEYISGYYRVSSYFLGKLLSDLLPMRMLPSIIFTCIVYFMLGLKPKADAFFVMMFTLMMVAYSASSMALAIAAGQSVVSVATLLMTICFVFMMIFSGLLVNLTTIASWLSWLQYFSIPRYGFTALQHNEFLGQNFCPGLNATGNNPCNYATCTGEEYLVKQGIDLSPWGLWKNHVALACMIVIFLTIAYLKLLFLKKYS

OATP1B3 = molecular target: T2, OATP1B3 (Homo sapiens, UniProt Q9NPD5); assay: OATP1B3-mediated transport of substrate; type: in vitro ADME; settings: OATP1B3-transfected HEK293 cells
T2 sequence (Q9NPD5 1-702): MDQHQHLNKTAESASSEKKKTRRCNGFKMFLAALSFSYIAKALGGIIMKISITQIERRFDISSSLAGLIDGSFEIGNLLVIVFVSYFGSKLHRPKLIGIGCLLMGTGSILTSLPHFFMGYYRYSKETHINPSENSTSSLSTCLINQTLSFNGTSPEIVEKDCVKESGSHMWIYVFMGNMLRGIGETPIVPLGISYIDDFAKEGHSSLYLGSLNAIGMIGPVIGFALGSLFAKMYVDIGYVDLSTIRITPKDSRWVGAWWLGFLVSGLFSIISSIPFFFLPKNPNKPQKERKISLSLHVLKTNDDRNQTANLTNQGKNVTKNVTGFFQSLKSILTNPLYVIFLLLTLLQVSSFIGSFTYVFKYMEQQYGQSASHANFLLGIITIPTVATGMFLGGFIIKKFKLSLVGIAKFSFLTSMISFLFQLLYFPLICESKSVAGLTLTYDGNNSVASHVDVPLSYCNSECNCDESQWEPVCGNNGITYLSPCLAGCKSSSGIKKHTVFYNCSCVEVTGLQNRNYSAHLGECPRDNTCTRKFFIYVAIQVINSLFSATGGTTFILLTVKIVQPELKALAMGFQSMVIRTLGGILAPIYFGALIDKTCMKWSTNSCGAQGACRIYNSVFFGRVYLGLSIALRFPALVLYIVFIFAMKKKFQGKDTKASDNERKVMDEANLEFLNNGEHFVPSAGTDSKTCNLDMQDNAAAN

OATP2B1 = molecular target: T3, OATP2B1 (Homo sapiens, UniProt O94956); assay: OATP2B1-mediated transport of substrate; type: in vitro ADME; settings: Estimated; optimized to recover ~40% Fa
T3 sequence (O94956 1-709): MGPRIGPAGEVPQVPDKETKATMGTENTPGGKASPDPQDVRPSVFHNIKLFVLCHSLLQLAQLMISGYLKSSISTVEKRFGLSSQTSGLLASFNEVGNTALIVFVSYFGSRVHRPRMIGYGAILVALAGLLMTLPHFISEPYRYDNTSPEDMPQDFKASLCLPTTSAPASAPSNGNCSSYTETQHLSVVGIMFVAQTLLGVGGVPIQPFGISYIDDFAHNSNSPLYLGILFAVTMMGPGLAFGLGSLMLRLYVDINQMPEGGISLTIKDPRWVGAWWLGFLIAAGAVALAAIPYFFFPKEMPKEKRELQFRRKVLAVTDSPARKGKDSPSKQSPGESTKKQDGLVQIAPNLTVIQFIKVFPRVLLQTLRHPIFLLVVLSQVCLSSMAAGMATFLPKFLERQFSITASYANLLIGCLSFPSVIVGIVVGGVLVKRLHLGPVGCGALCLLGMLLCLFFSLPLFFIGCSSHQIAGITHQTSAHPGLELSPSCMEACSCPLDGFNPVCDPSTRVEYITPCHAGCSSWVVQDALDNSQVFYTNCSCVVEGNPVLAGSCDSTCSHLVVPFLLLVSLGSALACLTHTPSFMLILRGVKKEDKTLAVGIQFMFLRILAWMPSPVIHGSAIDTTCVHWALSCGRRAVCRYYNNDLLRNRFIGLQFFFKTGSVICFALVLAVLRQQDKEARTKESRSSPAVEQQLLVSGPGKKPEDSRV

[4] = system: OATP1B1, OATP1B3, and OATP2B1; assay: SLC-phenotyping of hepatic uptake; type: in vitro ADME, human; settings: SLC-phenotyping methodology
[5] = cited from earlier work
BCRP [6] = molecular target: T1, BCRP; settings: read-out: BCRP Km; membrane vesicle assay; cited from earlier work
Caco-2 permeability = type: in vitro ADME; settings: human

pKa [1]: 4.33
CLPD basal (hepatic and renal) [2]: 1.1 µl/min/10^6
Intestinal BCRP Jmax (BCRP [3]): 380 pmol/min
Km (OATP1B3): 28.3 µM
Intestinal OATP2B1 CLint,T (OATP2B1): 0.002 µL/min
share of active hepatic uptake driven by OATP1B1, OATP1B3, and OATP2B1 [4]: ~ 95%
Papp (Caco-2 permeability): 1.2 ×10⁻⁶ cm/s
SMILES: CC(C)c1nc(N(C)S(C)(=O)=O)nc(-c2ccc(F)cc2)c1/C=C/[C@@H](O)C[C@@H](O)CC(=O)O [Rosuvastatin, rosuvastatin]
contribution of OAT3-mediated active secretion to renal clearance [5]: greater than 90%
glomerular filtration rate [5]: ~ 0.22 ml/min/kg
renal clearance [5]: ~ 2.6 ml/min/kg
oral bioavailability ([5]; human, in vivo, po): ~ 20%
Km (BCRP [6]): 10.8 µM

Reference: paper PMC8452302 (CPT: Pharmacometrics & Systems Pharmacology, 2021)
